How the values were obtained:
BTK wildtype protein = BTK wildtype protein (Homo sapiens (Human), UniProt Q06187); experiment: BTK wildtype HTRF displacement assay; format: binding; settings: 1-hour incubation; read-out: BTK (wt) IC50
In short: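 Full-length N-terminal GST-tagged BTK incubated 1 h at room temperature with compound (6 doses, four-fold dilutions from 5 μM top) plus kinase tracer 239 and anti-GST-Tb antibody. Tracer displacement read as TR-FRET 665/620 ratio, background-subtracted using no-protein control. IC50 from four-parameter fit constrained 0–100% inhibition.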

BTK C481S protein = BTK C481S protein (Homo sapiens (Human), UniProt Q06187, C481S); experiment: BTK C481S HTRF displacement assay; format: binding; settings: 1-hour incubation
In short: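 N-terminal GST-tagged BTK C481S (2-659) incubated 1 hour at room temperature with compound (6 doses, four-fold from 5 μM), 50 nM kinase tracer 239 and anti-GST-Tb antibody. TR-FRET 665/620 ratio, background-subtracted; IC50 from constrained four-parameter fit. KI=IC50/(1+[Tracer]/Kd), tracer Kd 54 nM.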

BTK wildtype protein, sequence (Q06187 2-659): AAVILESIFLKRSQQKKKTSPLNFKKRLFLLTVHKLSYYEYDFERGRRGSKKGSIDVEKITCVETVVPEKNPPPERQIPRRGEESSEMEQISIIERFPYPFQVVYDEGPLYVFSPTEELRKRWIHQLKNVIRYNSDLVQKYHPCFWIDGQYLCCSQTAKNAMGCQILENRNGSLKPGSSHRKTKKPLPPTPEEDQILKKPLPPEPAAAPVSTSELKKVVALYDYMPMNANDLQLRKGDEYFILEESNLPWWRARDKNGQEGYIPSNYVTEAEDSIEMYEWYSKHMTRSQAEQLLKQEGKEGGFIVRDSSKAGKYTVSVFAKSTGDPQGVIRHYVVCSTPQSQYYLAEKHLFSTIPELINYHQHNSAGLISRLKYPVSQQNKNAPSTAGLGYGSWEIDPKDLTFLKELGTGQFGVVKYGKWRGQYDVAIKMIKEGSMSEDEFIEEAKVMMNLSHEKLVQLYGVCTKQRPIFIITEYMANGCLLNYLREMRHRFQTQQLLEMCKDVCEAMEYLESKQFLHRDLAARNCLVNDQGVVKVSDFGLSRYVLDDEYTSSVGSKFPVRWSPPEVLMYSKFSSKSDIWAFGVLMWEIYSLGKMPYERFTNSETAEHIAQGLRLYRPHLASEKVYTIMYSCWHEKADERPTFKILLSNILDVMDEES
BTK C481S protein, sequence (Q06187 2-659 C481S): as the sequence (Q06187 2-659) above, with C480S counted along it

Compound	IC50 (BTK wildtype protein) [µM]	IC50 (BTK C481S protein) [µM]
COc1ccc(F)cc1C(=O)NCc1ccc(-c2nn(C(C)CC3CCCN3C(=O)n3cncn3)c3ncnc(N)c23)cc1 (centres unmarked) [Compound 279, N-(4-(1-(1-(1-(1H-1,2,4-triazole-1-carbonyl)pyrrolidin-2-yl)propan-2-yl)-4-amino-1H-pyrazolo[3,4-d]pyrimidin-3-yl)benzyl)-5-fluoro-2-methoxybenzamide]	> 1	> 1
COc1ccc(F)cc1C(=O)NCc1ccc(-c2nn(C[C@@H](C)N(C)C(=O)n3cncn3)c3ncnc(N)c23)cc1 [Compound 125, (R)-N-(1-(4-amino-3-(4-((5-fluoro-2-methoxybenzamido)methyl)phenyl)-1H-pyrazolo[3,4-d]pyrimidin-1-yl)propan-2-yl)-N-methyl-1H-1,2,4-triazole-1-carboxamide]	≤ 1	≤ 1
COc1ccc(F)cc1C(=O)NCc1ccc(-c2nn(C(CC(F)F)CN(C)C(=O)n3cncn3)c3ncnc(N)c23)cc1 (centres unmarked) [Compound 257, N-(2-(4-amino-3-(4-((5-fluoro-2-methoxybenzamido)methyl)phenyl)-1H-pyrazolo[3,4-d]pyrimidin-1-yl)-4,4-difluorobutyl)-N-methyl-1H-1,2,4-triazole-1-carboxamide]	> 1	> 1
NC(=O)c1c(-c2ccc(Oc3ccccc3)cc2)nn(C[C@@H]2CCCCN2C(=O)n2cncn2)c1N [Compound 184, (S)-1-((1-(1H-1,2,4-triazole-1-carbonyl)piperidin-2-yl)methyl)-5-amino-3-(4-phenoxyphenyl)-1H-pyrazole-4-carboxamide]	≤ 1	≤ 1
COc1ccc(F)cc1C(=O)NCc1ccc(-c2nn(C[C@@H]3C[C@@H](O)CN3C(=O)n3cncn3)c3ncnc(N)c23)cc1 [Compound 224, N-(4-(4-amino-1-(((2S,4R)-4-hydroxy-1-(1H-1,2,4-triazole-1-carbonyl)pyrrolidin-2-yl)methyl)-1H-pyrazolo[3,4-d]pyrimidin-3-yl)benzyl)-5-fluoro-2-methoxybenzamide]	> 1	> 1
CC(C)[C@@H](C1CCNc2c(C(N)=O)c(-c3ccc(Oc4ccccc4)cc3)nn21)N(C)C(=O)n1cncn1 (stereo partly drawn) [Compound 301, 7-((S)-2-methyl-1-(N-methyl-1H-1,2,4-triazole-1-carboxamido)propyl)-2-(4-phenoxyphenyl)-4,5,6,7-tetrahydropyrazolo [1,5-a]pyrimidine-3-carboxamide]	> 1	> 1
COc1ccc(C)cc1C(=O)NCc1ccc(-c2nn(C3CCC(N(C)C(=O)n4cnnn4)C3)c3ncnc(N)c23)cc1 (centres unmarked) [Compound 273, N-(3-(4-amino-3-(4-((2-methoxy-5-methylbenzamido)methyl)phenyl)-1H-pyrazolo[3,4-d]pyrimidin-1-yl)cyclopentyl)-N-methyl-1H-tetrazole-1-carboxamide]	≤ 1	≤ 1
COc1ccc(F)cc1C(=O)NCc1ccc(-c2nn(CC3CCC3N(C)C(=O)n3cncn3)c3ncnc(N)c23)cc1 (centres unmarked) [Compound 209, N-(2-((4-amino-3-(4-((5-fluoro-2-methoxybenzamido)methyl)phenyl)-1H-pyrazolo[3,4-d]pyrimidin-1-yl)methyl)cyclobutyl)-N-methyl-1H-1,2,4-triazole-1-carboxamide]	≤ 1	≤ 1
COc1ccc(F)cc1C(=O)NCc1ccc(-c2nn(C[C@H]3CCCN3C(=O)n3cncn3)c3ncnc(N)c23)cc1 [Compound 292, (R)-N-(4-(1-((1-(1H-1,2,4-triazole-1-carbonyl)pyrrolidin-2-yl)methyl)-4-amino-1H-pyrazolo[3,4-d]pyrimidin-3-yl)benzyl)-5-fluoro-2-methoxybenzamide]	≤ 1	≤ 1
CN(C(=O)n1cncn1)C1CCC2C(CNc3c(C(N)=O)c(-c4ccc(Oc5ccccc5)cc4)nn32)C1 (centres unmarked) [Compound 199, 7-(N-methyl-1H-1,2,4-triazole-1-carboxamido)-2-(4-phenoxyphenyl)-4,5,5a,6,7,8,9,9a-octahydro-pyrazolo[1,5-a]quinazoline-3-carboxamide]	≤ 1	≤ 1

Source: patent US20240294531A1, “COVALENT HETEROCYCLES AND USES THEREOF” (Kumquat Biosciences Inc., priority 2022, published 2024)
